Experimental data reported in patent US6566074B1, “Methods of modulating cell attachment and migration” (The General Hospital Corporation, priority 1999, dated 2003).

System: FN−/−fibroblasts
Format: cell-based, mouse
Conditions: Rho experiment: substrate 120 kDa CBD of fibronectin; substance added as supplement (Figs 5B-5D)

## Lysophosphatidic acid [LPA]
  % of attached cells that assemble focal adhesions and actin stress fibers (spread morphology): 95%
